The results in this text go back to ChEMBL document CHEMBL4184250, “Structure-activity studies of a macrocyclic peptide inhibitor of histone lysine demethylase 4A” (Bioorg Med Chem, 2018).

Where a SMILES comes first, the peptide text is derived from it. Bridges are numbered along the chain shown (N, C = ends). Some results are limits rather than exact numbers.

In data set [1] the target is T1, Lysine-specific demethylase 4C (Homo sapiens, UniProt Q9H3R0).
T1 sequence (Q9H3R0 whole entry): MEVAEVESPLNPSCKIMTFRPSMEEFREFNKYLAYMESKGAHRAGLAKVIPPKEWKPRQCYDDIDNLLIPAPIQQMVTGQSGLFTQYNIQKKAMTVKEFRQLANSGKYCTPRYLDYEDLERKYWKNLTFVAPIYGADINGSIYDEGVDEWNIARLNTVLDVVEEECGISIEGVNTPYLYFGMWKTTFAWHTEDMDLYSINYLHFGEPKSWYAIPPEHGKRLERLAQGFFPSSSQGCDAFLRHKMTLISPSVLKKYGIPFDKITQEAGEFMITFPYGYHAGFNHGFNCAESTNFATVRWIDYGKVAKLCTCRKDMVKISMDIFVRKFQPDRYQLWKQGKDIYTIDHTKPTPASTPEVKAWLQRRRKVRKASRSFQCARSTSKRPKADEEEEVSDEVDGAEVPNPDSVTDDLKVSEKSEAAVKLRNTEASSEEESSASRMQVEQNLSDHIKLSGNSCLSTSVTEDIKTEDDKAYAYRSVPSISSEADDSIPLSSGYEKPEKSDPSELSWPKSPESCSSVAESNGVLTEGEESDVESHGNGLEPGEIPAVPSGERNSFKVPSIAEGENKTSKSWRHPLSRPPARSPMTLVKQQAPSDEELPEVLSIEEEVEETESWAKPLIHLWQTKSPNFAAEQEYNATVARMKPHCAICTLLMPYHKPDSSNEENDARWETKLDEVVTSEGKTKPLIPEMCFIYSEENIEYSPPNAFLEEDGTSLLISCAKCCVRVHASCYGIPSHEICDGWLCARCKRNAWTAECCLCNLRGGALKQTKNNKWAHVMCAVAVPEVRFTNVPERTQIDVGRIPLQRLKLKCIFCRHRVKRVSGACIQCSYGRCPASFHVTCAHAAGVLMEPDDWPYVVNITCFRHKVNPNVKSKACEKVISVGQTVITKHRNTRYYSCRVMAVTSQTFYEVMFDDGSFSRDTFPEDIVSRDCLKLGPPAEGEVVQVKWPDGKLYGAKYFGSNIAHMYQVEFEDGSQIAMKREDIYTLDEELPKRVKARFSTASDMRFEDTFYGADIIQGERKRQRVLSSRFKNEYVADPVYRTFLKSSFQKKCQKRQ
As to the kind of experiment: Inhibition of KDM4C (unknown origin) expressed in Escherichia coli using biotinylated peptide as substrate pretreated for 15 mins followed by substrate addition by Alphascreen assay. A general note: Alpha assays give light when donor and acceptor beads are brought close together.

Data set [2] addresses T2, Lysine-specific demethylase 4A (Homo sapiens, UniProt O75164).
T2 sequence (O75164 whole entry): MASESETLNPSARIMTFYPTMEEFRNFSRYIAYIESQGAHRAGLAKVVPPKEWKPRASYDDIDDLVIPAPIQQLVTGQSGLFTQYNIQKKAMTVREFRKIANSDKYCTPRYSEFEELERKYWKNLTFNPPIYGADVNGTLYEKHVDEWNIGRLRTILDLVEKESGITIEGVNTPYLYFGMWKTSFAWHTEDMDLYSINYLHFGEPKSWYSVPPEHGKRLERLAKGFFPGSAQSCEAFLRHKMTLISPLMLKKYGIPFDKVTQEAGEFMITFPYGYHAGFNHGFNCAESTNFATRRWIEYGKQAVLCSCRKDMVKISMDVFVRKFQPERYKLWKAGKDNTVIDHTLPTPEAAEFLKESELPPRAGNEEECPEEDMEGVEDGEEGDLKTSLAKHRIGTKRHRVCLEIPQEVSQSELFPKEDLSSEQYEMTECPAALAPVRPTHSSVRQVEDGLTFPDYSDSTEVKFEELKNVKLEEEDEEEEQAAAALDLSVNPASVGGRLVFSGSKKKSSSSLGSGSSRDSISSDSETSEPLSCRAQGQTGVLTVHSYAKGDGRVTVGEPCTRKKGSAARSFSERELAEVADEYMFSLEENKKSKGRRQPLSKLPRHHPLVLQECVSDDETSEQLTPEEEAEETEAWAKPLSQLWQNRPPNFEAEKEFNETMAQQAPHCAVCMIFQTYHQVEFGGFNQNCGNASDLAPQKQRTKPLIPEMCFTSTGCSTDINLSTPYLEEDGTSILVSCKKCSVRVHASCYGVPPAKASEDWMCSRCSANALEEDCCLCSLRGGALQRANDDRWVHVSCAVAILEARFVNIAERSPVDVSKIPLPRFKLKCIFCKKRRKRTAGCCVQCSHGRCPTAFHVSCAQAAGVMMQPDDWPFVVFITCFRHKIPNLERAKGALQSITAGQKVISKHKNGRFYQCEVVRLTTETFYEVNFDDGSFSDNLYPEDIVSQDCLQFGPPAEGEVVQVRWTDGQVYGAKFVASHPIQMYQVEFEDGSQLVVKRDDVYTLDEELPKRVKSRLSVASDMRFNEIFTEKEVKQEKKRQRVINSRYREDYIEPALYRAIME
The data set is described as follows: Inhibition of KDM4A (unknown origin) expressed in Escherichia coli using biotinylated peptide as substrate pretreated for 15 mins followed by substrate addition by Alphascreen assay.

Data set [3] is described as follows: Drug uptake in human MCF7 cells assessed as cell area stained at 10 uM after 3 hrs by Hoechst 33342 staining based confocal microscopic analysis. The class given is ADME. The settings on record: mcf7, 3 h.
Data set [4] deals with T2, Lysine-specific demethylase 4A. The data set is described as follows: Binding affinity to biotinylated-KDM4A (unknown origin) at 300 nM by bio-layer interferometric method. Conditions: read-out: Kd(app). (Biolayer interferometry detects binding as a change in optical thickness at a sensor tip.)
For data set [5] the target is unchanged. The data set is described as follows: Inhibition of full length FLAG-tagged KDM4A (unknown origin) expressed in human HeLa cells assessed as increase in H3K9me3 levels after 24 hrs by DAPI staining based immunofluorescence assay. The settings on record: hela. In kind it is cell-based.

Broadly, the IC50 is the point on the concentration scale where inhibition reaches its midpoint. `CC[C@H](C)[C@@H]1NC(=O)[C@H](Cc2c[nH]c3ccccc23)NC(=O)CNC(=O)[C@H](CO)NC(=O)[C@H](CCCNC(=N)N)NC(=O)[C@H](CCCCN)NC(=O)[C@H]([C@@H](C)CC)NC(=O)[C@H](CO)NC(=O)[C@@H]2CCCN2C(=O)[C@H](Cc2ccc(O)cc2)NC(=O)CSC[C@@H](C(N)=O)NC(=O)[C@H](Cc2c[nH]c3ccccc23)NC1=O` ({CH2CO}-YPSIKRSGWIWC-NH2; thioether N-12): the figures for the IC50 in data set [1] and in data set [2] were 55 nM and 41 nM, respectively. Moreover, the Drug uptake in data set [3] is listed as 0.8%. Also, the Kd in data set [4] was 21 nM.

The EC50 is the midpoint of the concentration-response curve. Regarding `CC[C@H](C)[C@@H]1NC(=O)[C@H](CCCNC(=N)N)NC(=O)[C@H]([C@@H](C)CC)NC(=O)[C@@H](Cc2ccc(O)cc2)NC(=O)CSC[C@@H](C(N)=O)NC(=O)[C@H](Cc2c[nH]c3ccccc23)NC(=O)[C@H](CC(C)C)NC(=O)[C@H](Cc2c[nH]c3ccccc23)NC(=O)[C@@H](C)NC(=O)[C@H](CO)NC(=O)[C@H](CCCNC(=N)N)NC(=O)[C@H](CCCNC(=N)N)NC1=O`, the IC50 in data set [1] stood at 38 nM; in data set [2], 15 nM. Moreover, the EC50 in data set [5] was greater than 50000 nM. In addition, in data set [3], the Drug uptake stood at 92.7%. For the same molecule, the Kd in data set [4] stood at 3.1 nM.

As for `CC[C@H](C)[C@@H]1NC(=O)[C@H](CC(C)C)NC(=O)[C@H](Cc2ccc(O)cc2)NC(=O)CSC[C@@H](C(N)=O)NC(=O)[C@H](Cc2c[nH]c3ccccc23)NC(=O)[C@H](C(C)C)NC(=O)[C@H](CC(C)C)NC(=O)CNC(=O)[C@H](CO)NC(=O)[C@H](CCCNC(=N)N)NC(=O)[C@H](CCCNC(=N)N)NC(=O)[C@H](C(C)C)NC1=O` ({CH2CO}-YLIVRRSGLVWC-NH2; thioether N-12), the IC50 in data set [1] worked out at 151 nM; in data set [2], 81 nM. Further, the Drug uptake in data set [3] worked out at 3.4%. Moreover, in data set [4], the Kd was found to be 173 nM.

For the molecule `CC[C@H](C)[C@@H]1NC(=O)[C@H](CCCNC(=N)N)NC(=O)[C@H]([C@@H](C)CC)NC(=O)[C@H](Cc2ccc(O)cc2)NC(=O)CSC[C@@H](C(N)=O)NC(=O)[C@H](Cc2c[nH]c3ccccc23)NC(=O)[C@H](C(C)C)NC(=O)[C@H](Cc2c[nH]c3ccccc23)NC(=O)CNC(=O)[C@H](CO)NC(=O)[C@H](CCCNC(=N)N)NC(=O)[C@H](CO)NC1=O` ({CH2CO}-YIRISRSGWVWC-NH2; thioether N-12), the 50% inhibitory concentration (IC50) in data set [1] worked out at 23 nM; in data set [2] it was 31 nM. Besides, the Drug uptake in data set [3] is on record as 12.1%. Further, in data set [4], the Kd is 16 nM.

Consider `CC[C@H](C)[C@@H]1NC(=O)[C@H](Cc2c[nH]c3ccccc23)NC(=O)CNC(=O)[C@H](CO)NC(=O)[C@H](CCCNC(=N)N)NC(=O)[C@H](C(C)C)NC(=O)[C@H](C(C)C)NC(=O)[C@H](CCCNC(=N)N)NC(=O)[C@H]([C@@H](C)CC)NC(=O)[C@@H](Cc2ccc(O)cc2)NC(=O)CSC[C@@H](C(N)=O)NC(=O)[C@H](Cc2c[nH]c3ccccc23)NC1=O`, for which the IC50 in data set [1] worked out at 22 nM; in data set [2], 43 nM. The Drug uptake in data set [3] stood at 2.9%. Besides, in data set [4], the Kd is 3.7 nM.

For the molecule `CC[C@H](C)[C@@H]1NC(=O)[C@H](CC(C)C)NC(=O)CNC(=O)[C@H](CO)NC(=O)[C@H](CCCNC(=N)N)NC(=O)[C@H](C(C)C)NC(=O)[C@H](C(C)C)NC(=O)[C@H](CCCCN)NC(=O)[C@@H]2CCCN2C(=O)[C@H](Cc2ccc(O)cc2)NC(=O)CSC[C@@H](C(N)=O)NC(=O)[C@H](Cc2c[nH]c3ccccc23)NC1=O` ({CH2CO}-YPKVVRSGLIWC-NH2; thioether N-12), the IC50 is 154 nM in data set [1] and 82 nM in data set [2]. Also, the Drug uptake in data set [3] came to 1.7%. Moreover, the Kd in data set [4] was 49 nM.
